# Assays:
# [1] = Aqueous solubility of crystalline salts of Q702 (slurried overnight in deionised water, HPLC); settings: crystalline salts slurried overnight in deionised water (pH = 6.8); for pH of solution: solution pH measured
# Description: (§1) Solubility was measured by a) solubility estimation by aliquot addition and b) HPLC: • a) Solubility estimation by aliquot-addition
# (§2) Samples were held at ambient temperature for 18 hours to maximize the chance of precipitation. Any recoverable solids were analyzed by XRPD.
# (§3) The HPLC method used to determine equilibrium solubility in a variety of solvents is outlined. […] A phenomenex Kinetex column was used with a particle size of 2.6 μm.
# [2] = Thermal stressing of amorphous Q702 HCl salt; type: physicochemical; settings: 50° C., 7 days, under nitrogen in a sealed vial
# [3] = Humidity stress using amorphous material; type: physicochemical; settings: 6 days
# Description: X-ray amorphous material generated from freeze drying was exposed to various controlled humidity conditions for 6 days before analysis by XRPD. Both samples remained as amorphous material.
# physchem = settings: pH 6.8, water, thermodynamic from solid
# Description: as §1, §2, §3
# [4] = Solubility estimation by aliquot addition in solvents; type: physicochemical; settings: organic solvent or mixture, thermodynamic from solid
# Description: The aliquot volumes were typically 100-1000 μL. Complete dissolution of the test material was determined by visual inspection. The solubility was estimated from these experiments based on the total solvent used to provide complete dissolution. […] From the infrared (IR) transmission data of the sample vials, dissolution and precipitation events were recorded as the point of complete transmission of IR and the onset of turbidity by IR respectively. […] Any recoverable solids were analyzed by XRPD. […] HCl salt was estimated in 9 solvent systems using the aliquot addition method.
# [5] = Long term stability of Form A of Q702 HCl salt; type: physicochemical
# Description: Form A of […] HCl salt was tested for long term stability to 24 months.
# [6] = Pharmacokinetic study in plasma after oral administration; type: in vivo, male SD rats; settings: 30 mg/kg; for AUC(0-t) / Cmax / Tmax / half-life: vehicle water
# Description: In this example, pharmacokinetic studies are performed using the form A of the HCl-salt of Q702 and the free base (FB) thereof in plasma, following oral administration of such form A and free base to male SD rats.
# Appropriate amounts of the form A of Q702 HCl or of free base were accurately weighed and mixed with appropriate volume of vehicle (water) to get a clear solution or uniform suspension. Male SD rats were dosed with a nominal dose of 30 mg/kg body weight. After dosing, 0.2 mL blood was collected per time point at time points o h, 0.083 h, 0.25 h, 0.5 h, 1 h, 2 h, 4 h, 8 h, 12 h, and 24 h. For such blood collection, blood was collected from the jugular vein or other suitable site of each animal into pre-chilled plastic microcentrifuged tubes containing 5 μL of 1000 IU heparin Na as anti-coagulant. Blood samples were processed for plasma by centrifugation at approximately 4° C., 3200 g for ten minutes. Plasma was collected and transferred into pre-labelled polypropylene tubes, snap-frozen over dry ice and kept at −60° C. or lower until LC-MS/MS-analysis was performed. LC-MS/MS methodology was performed using a calibration curve with at least 6 non-zero calibration standards.
# Plasma concentrations versus time were plotted and analysed by non-compartmental approaches using the Phoenix WinNonlin 6.3 software program. Related pharmacokinetic parameters were calculated according to dosing route, e. g.
# [7] = Stress at 40° C./75% relative humidity for 15 days; type: physicochemical; settings: 40° C./75% RH
# Description: HCl form C was stressed at 40° C./75% relative humidity for 15 days.
# Form A was stressed at 40° C./75% for 15 days. […] Solvent was not detected.
# [8] = Dynamic Vapour Sorption (DVS) hygroscopicity; type: physicochemical; settings: for total weight gain between 40-80% RH: DVS isothermal plot, 25° C.
# Description: Dynamic Vapour Sorption (DVS) was performed using a Hiden Analytical Instruments IGAsorp Vapour Sorption Balance. Approximately 30 mg of sample was placed into a wire-mesh vapour sorption balance pan, loaded into the IGAsorp vapour sorption balance and held at 25° C.±0.1° C. The sample was subjected to a step profile from o to 90% RH at 10% increments, followed by desorption from 90% RH to 0% RH at 10% increments. The equilibrium criterion was set to 99.0% step completion within a minimum of 60 minutes and a maximum of 5 hours for each increment. The weight change during the sorption cycle was monitored, allowing for the hygroscopic nature of the sample to be determined. The data collection interval was in seconds.
# [9] = Humidity stress using crystalline material (HCl form C); type: physicochemical; settings: 8 days
# Description: Approximately 25 mg of […] […] HCl form C material and were stressed for 8 days. All samples remained as […] HCl form C material.
compound,measurement,setting,value
O=C(O)CCC(=O)C(=O)O [Ketoglutarate],pH of solution,[1],2.91
CCCn1cc(OCC(F)(F)F)c(C(=O)Nc2ccc(Oc3ccnc4cc(OC)c(OC)cc34)cn2)n1.Cl [amorphous Q702 HCl salt],XRPD after thermal stress,[2]; listed as Amorphous Q702 HCl salt,remained amorphous
same,XRPD after thermal stress,[2]; listed as amorphous,amorphous
same,XRPD after humidity stress,[3]; 40° C./75% RH stress,amorphous
same,XRPD after humidity stress,[3]; 59% RH stress,amorphous
Tosylate,Aq Solub,[1],0.026 mg/mL
same,pH of solution,[1],4.26
"CCCn1cc(OCC(F)(F)F)c(C(=O)Nc2ccc(Oc3ccnc4cc(OC)c(OC)cc34)cn2)n1.Cl [Q702 HCl salt, N-(5-((6,7-dimethoxyquinolin-4-yl)oxy)pyridin-2-yl)-1-propyl-4-(2,2,2-trifluoroethoxy)-1H-pyrazole-3-carboxamide hydrochloride]",solubility,physchem,1.95 mg/mL
same,solubility,"[4]; Acetone, 20° C., read-out: Solubility Range",< 20 mg/mL
same,solubility,"[4]; Acetonitrile, 20° C., read-out: Solubility Range",< 20 mg/mL
same,solubility,"[4]; Dichloromethane, 20° C., read-out: Solubility Range",66 to 100 mg/mL
same,solubility,"[4]; Dimethyl sulfoxide, 20° C., read-out: Solubility Range",> 201 mg/mL
same,solubility,"[4]; Ethanol, 20° C., read-out: Solubility Range",67 to 101 mg/mL
same,solubility,"[4]; Ethyl acetate, 20° C., read-out: Solubility Range",< 20 mg/mL
same,solubility,"[4]; Methanol, 20° C., read-out: Solubility Range",49 to 66 mg/mL
same,solubility,"[4]; Methyl tert-butyl ether, 20° C., read-out: Solubility Range",< 20 mg/mL
same,solubility,"[4]; Tetrahydrofuran, 20° C., read-out: Solubility Range",< 20 mg/mL
same,solubility,"[4]; in four of the 9 solvents at ambient temperature, read-out: solubility",> 20 mg/mL
"CCCn1cc(OCC(F)(F)F)c(C(=O)Nc2ccc(Oc3ccnc4cc(OC)c(OC)cc34)cn2)n1.Cl [Q702 HCl form A, N-(5-((6,7-dimethoxyquinolin-4-yl)oxy)pyridin-2-yl)-1-propyl-4-(2,2,2-trifluoroethoxy)-1H-pyrazole-3-carboxamide hydrochloride]",Assay,"[5]; 25 ± 2° C./60 ± 5% RH, 12 M",94.0%
same,Purity,"[5]; 25 ± 2° C./60 ± 5% RH, 12 M",100.0%
same,XRPD,"[5]; 25 ± 2° C./60 ± 5% RH, 12 M",Consistent
same,Assay,"[5]; 25 ± 2° C./60 ± 5% RH, 24 M",94.6%
same,Purity,"[5]; 25 ± 2° C./60 ± 5% RH, 24 M",99.9%
same,XRPD,"[5]; 25 ± 2° C./60 ± 5% RH, 24 M",Consistent
same,Assay,"[5]; 40 ± 2° C./75 ± 5% RH, 6 M",94.8%
same,Purity,"[5]; 40 ± 2° C./75 ± 5% RH, 6 M",99.9%
same,XRPD,"[5]; 40 ± 2° C./75 ± 5% RH, 6 M",Consistent
same,Assay,[5]; Initial,95.9%
same,Purity,[5]; Initial,99.9%
same,XRPD,[5]; Initial,Consistent
same,long term stability (XRPD results),[5]; tested to 24 months,stable to 24 months
same,plasma exposure level higher than that of the free base (mean AUC-values),[6]; versus Q702 free base,33%
same,AUC(0-t),"[6]; male, SD, rat, plasma",430 µg·h/mL
same,Cmax,"[6]; male, SD, rat, plasma",37000 ng/mL
same,Tmax,"[6]; male, SD, rat, plasma",2.83 h
same,half-life,"[6]; male, SD, rat, plasma",10.3 h
same,bioavailability,"[6]; male, SD, rat, plasma, test = form A of HCl-salt, ref = free base of Q702, read-out: relative bioavailability",144%
same,XRPD after stress,[7]; hydrochloride,remained as form A
same,total weight gain between 40-80% RH,[8]; hydrochloride,0.5 % w/w
CCCn1cc(OCC(F)(F)F)c(C(=O)Nc2ccc(Oc3ccnc4cc(OC)c(OC)cc34)cn2)n1.Cl [HCl form C],% Weight change,[9]; 40° C./75% RH stress,−1.96%
same,weight loss,[9]; 40° C./75% RH,1.96%
same,% Weight change,[9]; 75% RH stress,−11.05%
same,weight loss,[9]; 75% RH stress,11.05%
same,% Weight change,[9]; 98% RH stress,+2.99%
same,% Weight change,"[9]; 98% RH stress, listed as Q702 HCl form C",2.99%
same,XRPD after stress,[7],remained as HCl salt form C
same,total weight gain between 40-80% RH,[8],0.7 % w/w
same,XRPD analysis of post DVS sample,[8]; after DVS analysis,no physical change in the sample was detected
same,"hygroscopicity, European Pharmacopoeia classification",[8]; based on DVS weight gain 40-80% RH,slightly hygroscopic
"CCCn1cc(OCC(F)(F)F)c(C(=O)Nc2ccc(Oc3ccnc4cc(OC)c(OC)cc34)cn2)n1 [Q702 free base, N-(5-((6,7-dimethoxyquinolin-4-yl)oxy)pyridin-2-yl)-1-propyl-4-(2,2,2-trifluoroethoxy)-1H-pyrazole-3-carboxamide]",AUC(0-t),"[6]; male, SD, rat, plasma",323 µg·h/mL
same,Cmax,"[6]; male, SD, rat, plasma",33800 ng/mL
same,Tmax,"[6]; male, SD, rat, plasma",3.33 h
same,half-life,"[6]; male, SD, rat, plasma",10.9 h

# From patent US20250188058A1, “NEW FORMS OF N-(5-((6,7-DIMETHOXYQUINOLIN-4-YL)OXY)PYRIDIN-2-YL)-1-PROPYL-4-(2,2,2-TRIFLUOROETHOXY)-1H-PYRAZOLE-3-CARBOXAMIDE HYDROCHLORIDE” (QURIENT CO., LTD., priority 2022, published 2025)
